Our source for the TGI and GI50 values is PubChem BioAssay (NCI).

Values joined by “and” are separate entries in the source; they are usually repeats but may differ in a detail not shown here. Equal values may be shown once.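 Briefly, cells in 96-well plates were exposed to five compound concentrations for 48 h, and endpoints were estimated by linear interpolation. Abbreviation: GI50, concentration required for 50% inhibition of growth. At the TGI there is no net growth.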 Some results are limits rather than exact numbers.

Test systems include UO-31 renal; MOLT-4 leukemia; M14 melanoma; SR leukemia; RPMI-8226 leukemia; RXF 393 renal; OVCAR-5 ovarian; NCI-H522 lung; MDA-MB-231 breast; DU-145 prostate.
Test in all cases: growth of human tumour cells (NCI), 48 h

For `CCCCCCCCCCCCCCCC(=O)N[C@H]1CCc2cc(OC)c(OC)c(OC)c2-c2ccc(SC)c(=O)cc21`, the TGI in the assay on UO-31 renal was 18.4 µM; in the assay with MOLT-4 leukemia, 19.6 µM and 13.1 µM; with M14 melanoma, 2.86 µM and 1.89 µM; with SR leukemia, 8.28 µM and 13.2 µM; in the assay on RPMI-8226 leukemia it was 22.7 µM; in the assay with RXF 393 renal it was 14.8 µM. Moreover, the TGI with OVCAR-5 ovarian was 41.1 µM and 36.8 µM. The GI50 in the assay with MOLT-4 leukemia is 3.21 µM; in the assay with M14 melanoma, 0.386 µM; in the assay on SR leukemia, 0.597 µM; in the assay on OVCAR-5 ovarian, 19.7 µM.

Consider `COc1cc2cc3c4c(cc(OC)c(OC)c4c2cc1OC)CCN3C(=O)OCCBr`, for which the TGI with NCI-H522 lung, in the assay on UO-31 renal, in the assay on MOLT-4 leukemia, in the assay on SR leukemia, in the assay with RXF 393 renal and with OVCAR-5 ovarian was above 100 µM throughout.

`CCN1CC2(C)CC[C@@H](OC)C34[C@@H]2[C@H](OC(C)=O)C2(OCO[C@@]25C[C@H](OC)C2C[C@]3(O)[C@@H]5[C@H]2O)[C@H]14`: the TGI in the assay on NCI-H522 lung, in the assay with UO-31 renal, in the assay with M14 melanoma, in the assay on SR leukemia, with RXF 393 renal and in the assay with OVCAR-5 ovarian was above 100 µM throughout.

Turning to `CC(C)=C1CCC(CN2CCCC2)C1=O` (stereo unspecified), the TGI in the assay on UO-31 renal was determined as 36.1 µM; in the assay with MOLT-4 leukemia it was 44.3 µM; in the assay on M14 melanoma, 34.1 µM; in the assay on SR leukemia it was 35.9 µM; with RPMI-8226 leukemia it was 37.8 µM; with RXF 393 renal, 39.5 µM. In the assay on OVCAR-5 ovarian, this compound registered a TGI above 100 µM.

In the case of `Cc1nc(C(N)=S)sc1C(=O)CC(=O)C(=O)Nc1cccc(Cl)c1C`, the TGI in the assay with NCI-H522 lung, in the assay with UO-31 renal, in the assay with MDA-MB-231 breast, with MOLT-4 leukemia, with M14 melanoma and with SR leukemia was above 100 µM throughout. Moreover, the TGI in the assay on RPMI-8226 leukemia, in the assay on RXF 393 renal and in the assay on OVCAR-5 ovarian was above 100 µM each time.

For `Cc1cccc(N2C(=O)/C(=C/c3ccc(N(CCC#N)CCC#N)cc3C)N=C2c2cc([N+](=O)[O-])ccc2Cl)c1`, the TGI with NCI-H522 lung, with UO-31 renal, in the assay on MOLT-4 leukemia, in the assay with M14 melanoma, with SR leukemia and in the assay on RPMI-8226 leukemia was above 100 µM in each case. The TGI in the assay on OVCAR-5 ovarian was above 100 µM.

As to `O=C1/C(=C/c2ccccc2)CN(C(=O)Oc2ccc([N+](=O)[O-])cc2)C/C1=C\c1ccccc1`, the GI50 in the assay with NCI-H522 lung was 2.15 µM; in the assay on MOLT-4 leukemia it was 1.21 µM; in the assay on M14 melanoma, 1.71 µM; in the assay on SR leukemia, 0.261 µM; in the assay with RPMI-8226 leukemia, 0.0844 µM; in the assay on RXF 393 renal it was 1.59 µM. Moreover, the TGI in the assay with NCI-H522 lung was 8.54 µM and 5.13 µM; with MOLT-4 leukemia, 4.83 µM and 4.45 µM; in the assay with M14 melanoma, 6.74 µM and 3.51 µM; in the assay with SR leukemia, 5.54 µM and 0.775 µM; in the assay on RPMI-8226 leukemia, 0.428 µM and 0.424 µM; in the assay with RXF 393 renal, 4.51 µM.

In the case of `CC[C@@]1(O)C(=O)OCc2c1cc1n(c2=O)Cc2cc3c(NC(C)=O)c(O)ccc3nc2-1`, the GI50 in the assay on NCI-H522 lung was 0.565 µM; in the assay on UO-31 renal it was 1.76 µM; with MOLT-4 leukemia, 0.133 µM; with M14 melanoma it was 1.04 µM; in the assay on SR leukemia it was below 0.0148 µM; with RPMI-8226 leukemia it was 4.58 µM. Further, the GI50 in the assay on RXF 393 renal was 2.34 µM; in the assay on OVCAR-5 ovarian, 4.19 µM. The TGI was found to be 14.5 µM with NCI-H522 lung; 16.2 µM in the assay on UO-31 renal; 0.968 µM with MOLT-4 leukemia; 15.8 µM in the assay on M14 melanoma; 0.108 µM in the assay with SR leukemia; 56.8 µM in the assay with RPMI-8226 leukemia. In addition, the TGI with RXF 393 renal was 20.2 µM; in the assay with OVCAR-5 ovarian, above 100 µM.

On to `COc1ccccc1NC(=O)C(=O)C1C(=O)Nc2ccccc2S1=O` (stereo unspecified), for which the TGI in the assay with NCI-H522 lung, with UO-31 renal, in the assay on MOLT-4 leukemia, with M14 melanoma, with SR leukemia and with RXF 393 renal was above 100 µM throughout. In addition, the TGI in the assay with OVCAR-5 ovarian was above 100 µM.

As for `CCOC(=N)CC(=O)NC(C)c1ccccc1` (stereo unspecified), the TGI in the assay with NCI-H522 lung, in the assay on UO-31 renal, in the assay on MOLT-4 leukemia, in the assay on M14 melanoma, with SR leukemia and in the assay with RXF 393 renal was above 100 µM throughout. Also, the TGI with OVCAR-5 ovarian is above 100 µM.

Turning to `COC(=O)Nc1nc2ccc(Sc3ccc(NC(=O)Nc4cc(C(F)(F)F)ccc4F)cc3)cc2[nH]1`, the GI50 in the assay with DU-145 prostate was 4.15 µM; in the assay with NCI-H522 lung, 2.05 µM; with UO-31 renal, 5.9 µM; in the assay on MDA-MB-231 breast, 2.84 µM; in the assay on MOLT-4 leukemia it was 3.26 µM; with M14 melanoma, 2.01 µM. The figures for the GI50 in the assay with RPMI-8226 leukemia, in the assay with RXF 393 renal and in the assay with OVCAR-5 ovarian were 7.14 µM, 3.29 µM and 3.5 µM, respectively. Besides, the TGI in the assay on DU-145 prostate is 8.27 µM; in the assay on NCI-H522 lung, 6.27 µM; with UO-31 renal, 19.8 µM; in the assay on MDA-MB-231 breast, 9.32 µM; in the assay on MOLT-4 leukemia it was 17 µM; with M14 melanoma, 8.26 µM. In addition, the TGI came out at 24.1 µM in the assay on RPMI-8226 leukemia, 8.05 µM with RXF 393 renal and 9.24 µM with OVCAR-5 ovarian.

In the case of `O=c1c2cc(F)ccc2sc2c(NCCCN3CCCC3)nc3ccccc3c12`, the GI50 was 2.07 µM in the assay with DU-145 prostate; 1.97 µM with NCI-H522 lung; 1.59 µM in the assay on UO-31 renal; 1.55 µM in the assay with MDA-MB-231 breast; 1.97 µM in the assay on MOLT-4 leukemia; 1.86 µM in the assay on M14 melanoma. Also, the figures for the GI50 in the assay on SR leukemia, in the assay on RXF 393 renal and in the assay with OVCAR-5 ovarian were 2.75 µM, 2.33 µM and 1.85 µM, respectively. The TGI was 3.94 µM with DU-145 prostate; 3.96 µM with NCI-H522 lung; 4.18 µM in the assay with UO-31 renal; 3.2 µM with MDA-MB-231 breast; 4.22 µM in the assay on MOLT-4 leukemia; 3.47 µM in the assay with M14 melanoma. The TGI in the assay on SR leukemia is 6.51 µM; in the assay with RXF 393 renal, 8.67 µM; with OVCAR-5 ovarian, 3.74 µM.

Take `Cc1cc(N)c2ccccc2[n+]1CCCCCCCCCC[n+]1c(C)cc(N)c2ccccc21`: the GI50 in the assay with DU-145 prostate was 0.23 µM; in the assay on NCI-H522 lung, 1.38 µM; with UO-31 renal it was 0.954 µM and 2.84 µM; in the assay on MDA-MB-231 breast, 0.505 µM; with MOLT-4 leukemia, 0.549 µM and 1.41 µM; in the assay with M14 melanoma it was 0.584 µM. Further, the GI50 was 0.151 µM and 1.07 µM with SR leukemia; 0.0435 µM and 0.324 µM with RPMI-8226 leukemia. Besides, the TGI was 2.59 µM and 20.2 µM in the assay with DU-145 prostate; 4.01 µM and 4.43 µM in the assay on NCI-H522 lung; > 50 µM and 12.9 µM and 14 µM in the assay with UO-31 renal; > 11.5 µM and 12.7 µM in the assay on MDA-MB-231 breast; 1.38 µM and 3.23 µM and 4.08 µM in the assay with MOLT-4 leukemia; 3.25 µM and 18.5 µM and 7.33 µM in the assay with M14 melanoma. The TGI was 0.656 µM and 3.95 µM and 4.37 µM in the assay on SR leukemia; 0.859 µM and 2.61 µM and 2.71 µM in the assay with RPMI-8226 leukemia; 25.5 µM and 7.98 µM in the assay on OVCAR-5 ovarian.
